# Test results as given in article PMC8472378, “Desferrioxamine B-Mediated Pre-Clinical In Vivo Imaging of Infection by the Mold Fungus Aspergillus fumigatus” (Journal of Fungi, 2021).
# Columns and labels:
# Pseudomonas aeruginosa = conditions: cited from earlier work
# Escherichia coli = test system: Escherichia coli; design: method as in PMID 22172389, PMID 32734456; conditions: cited from earlier work
# Klebsiella pneumoniae = conditions: cited from earlier work
# [1] = design: method as in PMID 32734456; conditions: cited from earlier work
# A. fumigatus = conditions: cited from earlier work
# Streptococcus agalactiae = test system: Streptococcus agalactiae; design: method as in PMID 22172389, PMID 32734456; conditions: cited from earlier work
# [2] = test system: pulmonary A. fumigatus infection; experiment: Ex vivo biodistribution in A. fumigatus-infected rats; design: species or system rat; conditions: 45 min p.i.
# Protocol: (§1) A previously described rat model of pulmonary aspergillosis was used for the in vivo experiments. The introduction of A. fumigatus spores into animals, injection of radiolabeled siderophores and small animal imaging were carried out under 2% isoflurane anesthesia (FORANE, Abbott Laboratories, Abbott Park, IL, USA) to minimize animal suffering and prevent animal motion. Infection in the lung of immunodeficient rats was established by intratracheal inoculation of 100 μL of A. fumigatus spores (10^9 CFU/mL A. fumigatus ATCC 46645; American Type Culture Collection) using the TELE PACK VET X LED system equipped with a flexible endoscope (https://www.karlstorz.com/cps/rde/xbcr/karlstorz_assets/ASSETS/3386919.pdf, accessed on 20 August 2021; Karl Storz GmbH & Co. KG, Tuttlingen, Germany). Depending on the development of the infection, experimental animals underwent an ex vivo biodistribution study or PET/CT imaging, typically 2–4 days after inoculation.
# A. fumigatus-infected rats were retro-orbitally (r.o.) injected with [^67Ga]- and [^68Ga]Ga-DFO-B and DFO-E. One infected rat (rat 1) was injected with [^68Ga]Ga-DFO-B and [^67Ga]Ga-DFO-E, while the second rat (rat 2) was […] with [^67Ga]Ga-DFO-B and [^68Ga]Ga-DFO-E (~0.5 MBq and ~0.5 µg of each DFO-B and DFO-E per rat). Rats were sacrificed by exsanguination 45 min post-injection (p.i.). Organs and tissues of interest (blood, spleen, pancreas, kidneys, liver, heart, muscle and lung) were removed and weighed. The amount of radioactivity in the samples was measured in a γ-counter (2480 Wizard-2; Perkin Elmer, Waltham, MA, USA). First, a short-lived ^68Ga was measured immediately after organ removal in the 511 ± 100 keV energy window, and ^67Ga was measured after 24 h in the 185 ± 100 keV energy window. The results are expressed as percentage of injected dose per gram of organ (%ID/g).
# [3] = test system: pulmonary A. fumigatus infection; experiment: PET/CT imaging in rat model of pulmonary aspergillosis; format: in vivo, Lewis rats; conditions: A. fumigatus-infected rats, r.o. injection
# Protocol: as §1
# µPET/CT images were acquired with an Albira PET/SPECT/CT small animal imaging system (Bruker Biospin Corporation, Woodbridge, CT, USA). […] After reconstruction, acquired data were viewed, analyzed and processed using the appropriate software (PMOD software, PMOD Technologies Ltd., Zurich, Switzerland and VolView software, Kitware, Clifton Park, NY, USA).
# [4] = design: method as in PMID 32734456; conditions: cited from earlier work; remark: listed apart in the source
# [5] = design: method as in PMID 32734456; conditions: healthy mice; cited from earlier work
# [6] = non-infected rats; cited from earlier work
# [7] = test system: A. fumigatus strain Afs77; experiment: Short-term siderophore uptake analysis; format: cell-based, Aspergillus fumigatus; conditions: 45 min at 37 °C
# Protocol: Short-term uptake of siderophore-complexed ^68Ga was analyzed as described previously. A. fumigatus strain Afs77 [25] was grown for 18 h at 37 °C in 100 mL Aspergillus minimal medium (AMM) according to Pontecorvo et. al. with 1% (w/v) glucose as the carbon source and 20 mM glutamine as the nitrogen source, using iron-free trace elements to induce iron limiting for the transcriptional activation of siderophore uptake. To generate iron-replete mycelia for the transcriptional downregulation of siderophore uptake, the growth medium contained an additional 0.03 mM FeSO4. For the analysis of the pH-dependent siderophore uptake, the pH of the fungal culture medium was adjusted with HCl (1 M) and NaOH (1 M) immediately before the uptake analyses. Uptake assays were performed with 180 µL of liquid A. fumigatus culture added to a prewetted 96-well MultiScreen Filter Plates HTS (1 μm glass fiber filter, Merck Millipore, Darmstadt, Germany). Then, 50 µL of radioactive labelled siderophores (~100 nM) were added to the culture and incubated for 45 min at 37 °C. After washing two times with ice-cold TRIS buffer, the dried filters were measured in a γ-counter.
# Staphylococcus aureus = conditions: cited from earlier work
smiles,measurement,setting,value
CC(=O)N([O-])CCCCCNC(=O)CCC(=O)N([O-])CCCCCNC(=O)CCC(=O)N([O-])CCCCCN.[68Ga+3] [[^68Ga]Ga-DFO-B],in vitro uptake,Pseudomonas aeruginosa,uptake was found
same,in vitro uptake,Escherichia coli,lack significant uptake
same,in vitro uptake,Klebsiella pneumoniae,lack significant uptake
same,stability in human serum and PBS,[1],high stability
same,in vitro uptake,A. fumigatus,uptake was found
same,in vitro uptake,Streptococcus agalactiae,uptake was found
same,ratio of activity in lung vs. blood,[2]; infected rat 1 (injected with [68Ga]Ga-DFO-B and [67Ga]Ga-DFO-E),about 17
same,ratio of activity in lung vs. blood,[2]; infected rat 2 (injected with [67Ga]Ga-DFO-B and [68Ga]Ga-DFO-E),~8
same,"radioactivity accumulation in non-infected organs (blood, spleen, pancreas, liver, heart and muscle)",[2]; infected rats,low radioactivity accumulation
same,route of excretion,[2]; infected rats,primary excretion via kidneys
same,elimination of unbound tracer,[3]; PET/CT 45 min p.i.,rapidly eliminated via the renal system
same,PET/CT imaging of the infected area in the lungs,[3]; static PET/CT 45 min p.i.,clear depiction of the infected area in the lungs
same,protein binding,[4],low protein binding
same,renal excretion,[5],rapid renal excretion
same,retention in the blood and other organs,[5],minimal retention
same,accumulation in the lungs,[6],negligible accumulation
same,ratio of 68Ga activity in lung vs. blood,[6],0.84
same,uptake efficacy compared to [68Ga]Ga-DFO-E,"[7]; pH 5, iron-limited culture",approximately 20%
same,uptake efficacy compared to [68Ga]Ga-DFO-E,"[7]; pH 7, iron-limited culture",about 50%
same,uptake efficacy compared to [68Ga]Ga-DFO-E,"[7]; pH 9, iron-limited culture",~80%
same,in vitro uptake,Staphylococcus aureus,uptake was found
